Test results published in patent publication US20250304537A1 (Repare Therapeutics Inc., priority 2022, published 2025).
Read-outs that look alike come from different tables or passages of the source.

Test system: PKMYT1 (CDK1 pThr14) in FUOV1 cells
Experiment: PKMYT1 cell-based activity assay, CDK1 pThr14 AlphaLISA in FUOV1 cells
Conditions: 2 h, read-out: FUOV-1 CDK1 pThr14 IC50
How it was run: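 FUOV1 cells were treated with PKMYT1 inhibitor for 2 h at 37 °C, then lysed. CDK1 pThr14 was measured by AlphaLISA, pairing an anti-pThr14 antibody with an anti-total CDK1 antibody (5 nM each). Signal read at 680/615 nm and used to derive IC50.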

Structure (SMILES) | IC50 (2 h compound incubation) [nM] | IC50 (2 hours with compound) [nM]
Cc1ccc2[nH]ncc2c1-c1nc(-c2cccnc2Nc2ncccn2)nc(C(N)=O)c1N [Compound 726] | 120 | –
Cc1ccc2[nH]ncc2c1-c1nc(-c2cccnc2Nc2nc(F)ccc2Cl)nc(C(N)=O)c1N [Compound 752] | 2 | –
Cc1cc(Nc2cc(F)ccc2-c2nc(C(N)=O)c(N)c(-c3c(C)ccc4[nH]ncc34)n2)ncn1 [Compound 524] | 69 | –
COc1cncc(Nc2cc(F)ccc2-c2nc(C(N)=O)c(N)c(-c3c(C)ccc4[nH]ncc34)n2)n1 [Compound 696] | 69 | –
Cc1cnc(C)c(Nc2ncccc2-c2nc(C(N)=O)c(N)c(-c3c(C)ccc4[nH]ncc34)n2)n1 [Compound 718] | 39 | –
Cc1ccccc1Nc1ncccc1-c1nc(C(N)=O)c(N)c(-c2c(C)ccc3[nH]ncc23)n1 [Compound 657] | 70 | –
Cc1ccc2[nH]ncc2c1-c1nc(-c2cccnc2Nc2nc(F)ccc2F)nc(C(N)=O)c1F [Compound 500, 2-(2-((3,6-difluoropyridin-2-yl)amino)pyridin-3-yl)-5-fluoro-6-(5-methyl-1H-indazol-4-yl)pyrimidine-4-carboxamide] | 437 | –
Cc1ccc2[nH]ncc2c1-c1nc(-c2ccc(F)cc2Nc2cccc(C#N)c2)nc(C(N)=O)c1N [Compound 580, 5-amino-2-(2-((3-cyanophenyl)amino)-4-fluorophenyl)-6-(5-methyl-1H-indazol-4-yl)pyrimidine-4-carboxamide] | 44 | –
Cc1ccc(-c2nc(C(N)=O)c(N)c(-c3c(C)ccc4[nH]ncc34)n2)c(Nc2ncccn2)n1 [Compound 764] | 25 | –
Cc1ccc2[nH]ncc2c1-c1nc(-c2cc(F)cnc2NCC(F)(F)F)nc(C(N)=O)c1N [Compound 747] | 87 | –
Cc1ccc2[nH]ncc2c1-c1nc(-c2ccc(F)cc2Nc2ccnc(C(F)(F)F)c2)nc(C(N)=O)c1N [Compound 585] | 127 | –
Cc1ccc2[nH]ncc2c1-c1nc(-c2cccnc2NCCS(C)(=O)=O)nc(C(N)=O)c1N [Compound 543] | 931 | –
Cc1ccc2[nH]ncc2c1-c1nc(-c2cccnc2Nc2cccc(Cl)c2)nc(C(N)=O)c1N [Compound 638] | 707 | –
Cc1ccc2[nH]ncc2c1-c1nc(-c2cc(F)c(F)cc2NC2CNC2)nc(C(N)=O)c1N [Compound 486] | 114 | –
Cc1ccc2[nH]ncc2c1-c1nc(-c2ccc(F)cc2Nc2nccnc2C)nc(C(N)=O)c1N [Compound 640] | 2 | –
Cc1ccc2[nH]ncc2c1-c1cc2c(oc3ccc(OC4CCOCC4)nc32)c(C(N)=O)c1N [Compound 635] | 402 | –
Cc1cccnc1Nc1cc(F)ccc1-c1nc(C(N)=O)c(N)c(-c2c(C)ccc3[nH]ncc23)n1 [Compound 671] | 164 | –
Cc1ccc2[nH]ncc2c1-c1nc(-c2cc(F)c(F)cc2NCc2cccnc2)nc(C(N)=O)c1N [Compound 496] | 465 | –

Structure (SMILES) | IC50 (2 h compound incubation) [nM] | IC50 (2 hours with compound) [nM]
Cc1ccc2[nH]ncc2c1-c1nc(-c2ccc(F)cc2Nc2ncc(C#N)cn2)nc(C(N)=O)c1N [Compound 535] | 151 | –
Cc1ccncc1Nc1cc(F)ccc1-c1nc(C(N)=O)c(N)c(-c2c(C)ccc3[nH]ncc23)n1 [Compound 664] | 41 | –
COCC(COC)Nc1cc(F)c(F)cc1-c1nc(C(N)=O)c(N)c(-c2c(C)ccc3[nH]ncc23)n1 [Compound 508] | 622 | –
Cc1ccc2[nH]ncc2c1-c1nc(-c2cncnc2NCC(F)(F)F)nc(C(N)=O)c1N [Compound 573] | 182 | –
Cc1ccc2[nH]ncc2c1-c1nc(-c2ccncc2NC(=O)C(C)(C)C)cc(C(N)=O)c1N [Compound 507, 5-amino-6-(5-methyl-1H-indazol-4-yl)-3′-pivalamido-[2,4′-bipyridine]-4-carboxamide] | 166 | –
Cc1cccc(Nc2ncccc2-c2nc(C(N)=O)c(N)c(-c3c(C)ccc4[nH]ncc34)n2)c1 [Compound 634] | 569 | –
Cc1ccc(F)c(Nc2ncccc2-c2nc(C(N)=O)c(N)c(-c3c(C)ccc4[nH]ncc34)n2)n1 [Compound 697] | 2 | –
Cc1ccc2[nH]ncc2c1-c1nc(-c2cccnc2Nc2cccc(F)n2)nc(C(N)=O)c1N [Compound 659] | 185 | –
Cc1ccc2[nH]ncc2c1-c1nc(-c2ccc(F)cc2Nc2ccccn2)nc(C(N)=O)c1N [Compound 516] | 30 | –
Cc1ccc2[nH]ncc2c1-c1nc(-c2cccnc2NCCC#N)nc(C(N)=O)c1N [Compound 542] | 77 | –
Cc1ccc2[nH]ncc2c1-c1nc(-c2cccnc2Nc2ncccc2C(F)(F)F)nc(C(N)=O)c1N [Compound 767] | 11 | –
Cc1ccc2[nH]ncc2c1-c1nc(-c2cccnc2Nc2nccnc2Cl)nc(C(N)=O)c1N [Compound 763] | 29 | –
Cc1ccc2[nH]ncc2c1-c1nc(-c2cccnc2Nc2cncnc2C)nc(C(N)=O)c1N [Compound 717] | 216 | –
Cc1ccc2[nH]ncc2c1-c1nc(-c2cc(F)c(F)cc2NC2CC(C)(C)NC(C)(C)C2)nc(C(N)=O)c1N [Compound 502] | 871 | –
Cc1ccc2[nH]ncc2c1-c1nc(-c2cc(F)ccc2Nc2ncc(C#N)s2)nc(C(N)=O)c1N [Compound 506] | 236 | –
Cc1ccc2[nH]ncc2c1-c1nc(-c2cc(F)ccc2NS(=O)(=O)C2CCCC2)nc(C(N)=O)c1N [Compound 531] | 918 | –
Cc1ccc2[nH]ncc2c1-c1nc(-c2cc(F)c(F)cc2NCC2(C#N)CC2)nc(C(N)=O)c1N [Compound 517] | 139 | –

Now from value to compound:

IC50 (2 h compound incubation) [nM] | IC50 (2 hours with compound) [nM] | Structure (SMILES)
– | 62 | Cc1ccc2[nH]ncc2c1-c1nc(-c2cccnc2NC(C)C)cc(C(N)=O)c1N [Compound 866, 5-amino-2′-(isopropylamino)-6-(5-methyl-1H-indazol-4-yl)-[2,3′-bipyridine]-4-carboxamide]
– | 2 | Cc1ccc2[nH]ncc2c1-c1nc(-c2ccncc2Nc2ncccc2F)nc(C(N)=O)c1N [Compound 938]
– | 111 | Cc1ccc2[nH]ncc2c1-c1nc(-c2cc(F)cnc2N[C@@H](C)C(F)(F)F)nc(C(N)=O)c1N [Compound 888]
– | 469 | NC(=O)c1nc(-c2cccnc2NC2CC2)nc(-c2cccc3[nH]ncc23)c1N [Compound 932]
– | 4 | N#Cc1cccnc1Nc1cc(F)ccc1-c1nc(C(N)=O)c(N)c(-c2c(F)ccc3[nH]ncc23)n1 [Compound 968]
– | 118 | Cn1cc(-c2nc(C(N)=O)c(N)c(-c3c(Cl)ccc4[nH]ncc34)n2)c(NC2CCCC2)n1 [Compound 920]
– | 121 | Cc1cc(F)c2[nH]ncc2c1-c1nc(-c2cc(F)cnc2NCC(C)(C)C#N)nc(C(N)=O)c1N [Compound 874]
5 | – | Cc1ccc2[nH]ncc2c1-c1nc(-c2ccc(Cl)nc2Nc2ncccc2F)nc(C(N)=O)c1N [Compound 781]
61 | – | Cc1ccc2[nH]ncc2c1-c1nc(-c2ccc(F)nc2N[C@H]2C[C@@](C)(O)C2)nc(C(N)=O)c1N [Compound 791]
44 | – | Cc1ccc2[nH]ncc2c1-c1nc(-c2cccnc2N[C@H]2CC[C@@H](O)C2)nc(C(N)=O)c1N [Compound 784]
– | 147 | Cc1cc(F)c2[nH]ncc2c1-c1nc(-c2cccnc2NCC(F)(F)F)nc(C(N)=O)c1N [Compound 872]
– | 33 | Cc1ccc2[nH]ncc2c1-c1nc(-c2cc(F)cnc2N[C@H]2C[C@@H]3CC[C@H]2O3)nc(C(N)=O)c1N [Compound 899]
– | 217 | Cc1ccc2[nH]ncc2c1-c1nc(-c2ccc(Cl)nc2Nc2cccnn2)nc(C(N)=O)c1N [Compound 832]
– | 123 | Cc1ccc2[nH]ncc2c1-c1nc(-c2cc(F)cnc2N[C@H]2COC[C@@H]2O)nc(C(N)=O)c1N [Compound 813]
– | > 10000 | Cc1ccc2[nH]ncc2c1-c1nc(-c2cccnc2Nc2nc(F)ccc2F)nc(C(N)=O)c1O [Compound 806, 2-(2-((3,6-difluoropyridin-2-yl)amino)pyridin-3-yl)-5-hydroxy-6-(5-methyl-1H-indazol-4-yl)pyrimidine-4-carboxamide]
– | 186 | [2H]C([2H])([2H])c1ccc2[nH]ncc2c1-c1nc(-c2ccc(C3CC3)nc2Nc2ncccn2)nc(C(N)=O)c1N [Compound 974, 5-amino-2-(6-cyclopropyl-2-(pyrimidin-2-ylamino)pyridin-3-yl)-6-(5-(methyl-d3)-1H-indazol-4-yl)pyrimidine-4-carboxamide]
– | 511 | Cc1ccc2[nH]ncc2c1-c1nc(-c2cc(F)cnc2N[C@H]2COC[C@H]2O)nc(C(N)=O)c1N [Compound 815]
– | 36 | Cc1cc(F)c2[nH]ncc2c1-c1nc(-c2ccc(F)nc2Nc2ncccc2C(F)F)nc(C(N)=O)c1N [Compound 878]
35 | – | Cc1ccc2[nH]ncc2c1-c1nc(-c2cccnc2N[C@@H]2CC[C@H](O)C2)nc(C(N)=O)c1N [Compound 783]
– | 200 | Cc1ccc2[nH]ncc2c1-c1nc(-c2cn(C(F)(F)F)nc2NC2CCOCC2)nc(C(N)=O)c1N [Compound 910]
– | 343 | Cc1ccc2[nH]ncc2c1-c1nc(-c2c[nH]nc2NC2CCOCC2)nc(C(N)=O)c1N [Compound 927]
– | 41 | Cc1c(F)cc2[nH]ncc2c1-c1nc(-c2cc(F)cnc2NCC(C)(C)C#N)nc(C(N)=O)c1N [Compound 859]
– | 2080 | Cc1ccc2[nH]ncc2c1-c1nc(-c2cc(F)cnc2NC2CCN(CC(F)(F)F)CC2)nc(C(N)=O)c1N [Compound 863]
– | 926 | Cc1ccc2[nH]ncc2c1-c1nc(-c2cn(C)nc2Nc2ccccn2)nc(C(N)=O)c1N [Compound 916, 5-amino-6-(5-methyl-1H-indazol-4-yl)-2-(1-methyl-3-(pyridin-2-ylamino)-1H-pyrazol-4-yl)pyrimidine-4-carboxamide]
– | 121 | Cc1ccc2[nH]ncc2c1-c1nc(-c2ccc(F)cc2N[C@H]2C[C@@](C)(O)C2)nc(C(N)=O)c1N [Compound 862]
– | 876 | Cc1ccc2[nH]ncc2c1-c1nc(-c2cc(F)cnc2NCc2cnn(C)c2)nc(C(N)=O)c1N [Compound 895]
– | 229 | Cc1ccc2[nH]ncc2c1-c1nc(-c2ccccc2[S+](C)[O-])nc(C(N)=O)c1N (centres unmarked) [Compound 820]
